# According to patent US11472811B2, “Pyrazolotriazolopyrimidine derivatives as A2A receptor antagonist” (BEIGENE, LTD., priority 2018, dated 2022):
# Target: human A2A receptor (A2AR) (Homo sapiens (Human), UniProt P29274)
# Assay: Luciferase reporter assay (HEK293-A2AR-luc2p/CRE/Hygro cells)
# Assay type: cell-based
# Conditions: 3 nM CGS21680, 5 h incubation
# Protocol: HEK293 cells were maintained in Dulbecco's modified Eagle's medium (DMEM, Gibco) supplemented with 10% fetal bovine serum (FBS, Thermo Scientific), 100 units/mL penicillin (Gibco), and 0.1 mg/mL streptomycin (Gibco) in a humidified 37° C. environment with 5% CO2. Plasmid encoding wild-type human A2A receptor (A2AR) (in pcDNA3.1) was synthesized by Genscript (Nanjing, China). Transfection of the plasmids was performed in 6-well plates with 4×10^5 cells using Lipofectamin 2000 (ThermoFisher Scientific) according to the instruction of the manufacturer. Cell clones that stably express A2AR were established and maintained in the same complete medium as the HEK293 cells in addition of G-418 (Gibico). Expression level of A2AR in each single cell clone was determined using immunoblotting and FACS method. HEK293-A2AR stable cells were then transfected with pGL4.29[luc2P/CRE/Hygro] (Promega) luciferase reporter plasmid for establishing the HEK293-A2AR-luc2p/CRE/Hygro stable cell line.
# HEK293-A2AR-luc2p/CRE/Hygro cells were seeded at a density of 5,000 cells/well in DMEM with 1% FBS and 1 U/mL adenosine deaminase (ADA) (Sigma). After 18 h, the cells were treated with 3 nM CGS21680 plus a series dilution of A2AR antagonist, the compounds disclosed herein at the concentration of 0.1˜10000 nM, prepared in DMEM with 1% FBS. After 5 h incubation, the luciferase activity in cells were measured using the Bright-Glo Luciferase Assay System (Promega) according to manufacturer's instructions. The luminescence signal was measured using a PHERAstar FS plate reader (BMG Labtech). […] Maximal luminescence intensity was determined in the presence of 3 nM CGS21680 and was set as 100%. The IC50 value was calculated from a dose dependent inhibition curve across the range of compound concentrations.
# Chain of human A2A receptor (A2AR) (P29274 whole entry): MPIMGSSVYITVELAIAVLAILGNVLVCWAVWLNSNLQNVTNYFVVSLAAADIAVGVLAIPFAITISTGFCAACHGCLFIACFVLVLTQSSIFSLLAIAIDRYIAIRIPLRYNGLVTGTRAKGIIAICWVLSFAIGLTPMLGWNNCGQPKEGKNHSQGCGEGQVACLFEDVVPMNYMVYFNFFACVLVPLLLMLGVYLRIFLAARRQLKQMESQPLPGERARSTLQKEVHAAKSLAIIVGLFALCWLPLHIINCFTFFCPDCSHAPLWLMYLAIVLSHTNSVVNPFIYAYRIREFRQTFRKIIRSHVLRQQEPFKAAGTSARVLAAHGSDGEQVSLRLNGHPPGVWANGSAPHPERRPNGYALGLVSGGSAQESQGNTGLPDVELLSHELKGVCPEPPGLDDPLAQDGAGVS
row,IC50 [nM],Structure (SMILES)
1,2,"C[C@](C(=O)NCc1ncccc1F)(c1ccccc1)n1ncc2c1nc(N)n1nc(-c3ccco3)nc21 [Example 119B, (R)-2-(5-amino-2-(furan-2-yl)-7H-pyrazolo[4,3-e][1,2,4]triazolo[1,5-c]pyrimidin-7-yl)-N-((3-fluoropyridin-2-yl)methyl)-2-phenylpropanamide]"
2,5.8,"C[C@](C(=O)NCc1cc(C(F)(F)F)ccn1)(c1ccccc1)n1ncc2c1nc(N)n1nc(-c3ccco3)nc21 [Example 143B, (R)-2-(5-amino-2-(furan-2-yl)-7H-pyrazolo[4,3-e][1,2,4]triazolo[1,5-c]pyrimidin-7-yl)-2-phenyl-N-((4-(trifluoromethyl)pyridin-2-yl)methyl)propanamide]"
3,41.7,"C[C@](C(=O)N[C@H]1COC[C@@H]1O)(c1ccccc1)n1ncc2c1nc(N)n1nc(-c3ccco3)nc21 [Example 106B, (R)-2-(5-amino-2-(furan-2-yl)-7H-pyrazolo[4,3-e][1,2,4]triazolo[1,5-c]pyrimidin-7-yl)-N-((3S,4R)-4-hydroxytetrahydrofuran-3-yl)-2-phenylpropanamide]"
4,2.1,"C[C@](C(=O)NCc1cccc(C(F)(F)F)n1)(c1ccccc1)n1ncc2c1nc(N)n1nc(-c3ccco3)nc21 [Example 144B, (R)-2-(5-amino-2-(furan-2-yl)-7H-pyrazolo[4,3-e][1,2,4]triazolo[1,5-c]pyrimidin-7-yl)-2-phenyl-N-((6-(trifluoromethyl)pyridin-2-yl)methyl)propanamide]"
5,2,"CC(=O)O[C@H]1CC[C@@H](NC(=O)[C@@](C)(c2ccccc2)n2ncc3c2nc(N)n2nc(-c4ccco4)nc32)CC1 [Example 151B, (cis)-4-((R)-2-(5-amino-2-(furan-2-yl)-7H-pyrazolo[4,3-e][1,2,4]triazolo[1,5-c]pyrimidin-7-yl)-2-phenylpropanamido)cyclohexyl acetate]"
6,9,"C[C@](C(=O)NC1CCSCC1)(c1ccccc1)n1ncc2c1nc(N)n1nc(-c3ccco3)nc21 [Example 145B, (R)-2-(5-amino-2-(furan-2-yl)-7H-pyrazolo[4,3-e][1,2,4]triazolo[1,5-c]pyrimidin-7-yl)-2-phenyl-N-(tetrahydro-2H-thiopyran-4-yl)propanamide]"
7,1.3,"C[C@](C(=O)N[C@@H]1CCCC[C@@H]1O)(c1ccccc1)n1ncc2c1nc(N)n1nc(-c3ccco3)nc21 [Example 58B, (R)-2-(5-amino-2-(furan-2-yl)-7H-pyrazolo[4,3-e][1,2,4]triazolo[1,5-c]pyrimidin-7-yl)-N-((1R,2S)-2-hydroxycyclohexyl)-2-phenylpropanamide]"
8,2.5,"Cc1cccc(CNC(=O)[C@@](C)(c2ccccc2)n2ncc3c2nc(N)n2nc(-c4ccco4)nc32)n1 [Example 108B, (R)-2-(5-amino-2-(furan-2-yl)-7H-pyrazolo[4,3-e][1,2,4]triazolo[1,5-c]pyrimidin-7-yl)-N-((6-methylpyridin-2-yl)methyl)-2-phenylpropanamide]"
9,40.4,"C[C@@](C(=O)N[C@H]1CC[C@@H](O)CC1)(c1ccccc1)n1ncc2c1nc(N)n1nc(-c3ccco3)nc21 [Example 76A, (S)-2-(5-amino-2-(furan-2-yl)-7H-pyrazolo[4,3-e][1,2,4]triazolo[1,5-c]pyrimidin-7-yl)-(cis)-N-(4-hydroxycyclohexyl)-2-phenylpropanamide]"
10,7.6,"C[C@](C(=O)NC1CCC(=O)CC1)(c1ccccc1)n1ncc2c1nc(N)n1nc(-c3ccco3)nc21 [Example 128B, (R)-2-(5-amino-2-(furan-2-yl)-7H-pyrazolo[4,3-e][1,2,4]triazolo[1,5-c]pyrimidin-7-yl)-N-(4-oxocyclohexyl)-2-phenylpropanamide]"

# Continued, compound first:
row,Structure (SMILES),IC50 [nM]
1,"CC(C(=O)N[C@H]1CCCNC1)(c1ccccc1)n1ncc2c1nc(N)n1nc(-c3ccco3)nc21 (stereo partly drawn) [Example 68, 2-(5-amino-2-(furan-2-yl)-7H-pyrazolo[4,3-e][1,2,4]triazolo[1,5-c]pyrimidin-7-yl)-2-phenyl-N—((S)-piperidin-3-yl)propanamide]",72.1
2,"CC(C(=O)NCC1(O)CC1)(c1ccccc1)n1ncc2c1nc(N)n1nc(-c3ccco3)nc21 (centres unmarked) [Example 88, 2-(5-amino-2-(furan-2-yl)-7H-pyrazolo[4,3-e][1,2,4]triazolo[1,5-c]pyrimidin-7-yl)-N-((1-hydroxycyclopropyl)methyl)-2-phenylpropanamide]",437
3,"CNC(=O)C(c1ccccc1)n1ncc2c1nc(N)n1nc(-c3ccco3)nc21 (centres unmarked) [Example 4, 2-(5-amino-2-(furan-2-yl)-7H-pyrazolo[4,3-e][1,2,4]-triazolo[1,5-c]pyrimidin-7-yl)-N-methyl-2-phenylacetamide]",3.8
4,"COCCNC(=O)C(C)(c1ccccc1)n1ncc2c1nc(N)n1nc(-c3ccco3)nc21 (centres unmarked) [Example 39, 2-(5-amino-2-(furan-2-yl)-7H-pyrazolo[4,3-e][1,2,4]triazolo[1,5-c]pyrimidin-7-yl)-N-(2-methoxyethyl)-2-phenylpropanamide]",7.6
5,"CC(C(=O)N[C@H]1CC[C@H](O)C1)(c1ccccc1)n1ncc2c1nc(N)n1nc(-c3ccco3)nc21 (stereo partly drawn) [Example 95, 2-(5-amino-2-(furan-2-yl)-7H-pyrazolo[4,3-e][1,2,4]triazolo[1,5-c]pyrimidin-7-yl)-N-((1S,3S)-3-hydroxycyclopentyl)-2-phenylpropanamide]",9.5
6,"Cc1cccc(C(C)(C(=O)NCC2(O)COC2)n2ncc3c2nc(N)n2nc(-c4ccco4)nc32)c1 (centres unmarked) [Example 85, 2-(5-amino-2-(furan-2-yl)-7H-pyrazolo[4,3-e][1,2,4]triazolo[1,5-c]pyrimidin-7-yl)-N-((3-hydroxyoxetan-3-yl)methyl)-2-(m-tolyl)propanamide]",7.3
7,"C[C@@H](NC(=O)C(c1ccccc1)n1ncc2c1nc(N)n1nc(-c3ccco3)nc21)c1ccccc1 (stereo partly drawn) [Example 10, 2-(5-amino-2-(furan-2-yl)-7H-pyrazolo[4,3-e][1,2,4]triazolo[1,5-c]pyrimidin-7-yl)-2-phenyl-N—((R)-1-phenylethyl)acetamide]",16.5
8,"CC(C(=O)NC1CCC(O)C1)(c1ccccc1)n1ncc2c1nc(N)n1nc(-c3ccco3)nc21 (centres unmarked) [Example 36, 2-(5-amino-2-(furan-2-yl)-7H-pyrazolo[4,3-e][1,2,4]triazolo[1,5-c]pyrimidin-7-yl)-N-(3-hydroxycyclopentyl)-2-phenylpropanamide]",12.9
9,"CC(C(=O)NCc1ccccc1)(c1ccccc1)n1ncc2c1nc(N)n1nc(-c3ccco3)nc21 (centres unmarked) [Example 35, 2-(5-amino-2-(furan-2-yl)-7H-pyrazolo[4,3-e][1,2,4]triazolo[1,5-c]pyrimidin-7-yl)-N-benzyl-2-phenylpropanamide]",10.7
10,"CC(C(=O)NCC1(O)COC1)(c1cccnc1)n1ncc2c1nc(N)n1nc(-c3ccco3)nc21 (centres unmarked) [Example 89, 2-(5-amino-2-(furan-2-yl)-7H-pyrazolo[4,3-e][1,2,4]triazolo[1,5-c]pyrimidin-7-yl)-N-((3-hydroxyoxetan-3-yl)methyl)-2-(pyridin-3-yl)propanamide]",767
11,"C[C@](C(=O)N[C@H]1CC[C@H](O)CC1)(c1ccccc1)n1ncc2c1nc(N)n1nc(-c3ccco3)nc21 [Example 52B, (R)-2-(5-amino-2-(furan-2-yl)-7H-pyrazolo[4,3-e][1,2,4]triazolo[1,5-c]pyrimidin-7-yl)-N-((trans)-4-hydroxycyclohexyl)-2-phenylpropanamide]",5
12,"CC(C(=O)NCc1cccc(C2(O)CCC2)n1)(c1ccccc1)n1ncc2c1nc(N)n1nc(-c3ccco3)nc21 (centres unmarked) [Example 130, 2-(5-amino-2-(furan-2-yl)-7H-pyrazolo[4,3-e][1,2,4]triazolo[1,5-c]pyrimidin-7-yl)-N-((6-(1-hydroxycyclobutyl)pyridin-2-yl)methyl)-2-phenylpropanamide]",6.9
13,"CC(C(=O)NC[C@@H]1CCCO1)(c1ccccc1)n1ncc2c1nc(N)n1nc(-c3ccco3)nc21 (stereo partly drawn) [Example 51, 2-(5-amino-2-(furan-2-yl)-7H-pyrazolo[4,3-e][1,2,4]triazolo[1,5-c]pyrimidin-7-yl)-2-phenyl-N—(((S)-tetrahydrofuran-2-yl)methyl)propanamide]",2.7
14,"COc1ccccc1C(C)(C(=O)NCC1(O)COC1)n1ncc2c1nc(N)n1nc(-c3ccco3)nc21 (centres unmarked) [Example 70, 2-(5-amino-2-(furan-2-yl)-7H-pyrazolo[4,3-e][1,2,4]triazolo[1,5-c]pyrimidin-7-yl)-N-((3-hydroxyoxetan-3-yl)methyl)-2-(2-methoxyphenyl)propanamide]",1.7
15,"CC(C(=O)NCc1ccccn1)(c1ccccc1)n1ncc2c1nc(N)n1nc(-c3ccco3)nc21 (centres unmarked) [Example 66, 2-(5-amino-2-(furan-2-yl)-7H-pyrazolo[4,3-e][1,2,4]triazolo[1,5-c]pyrimidin-7-yl)-2-phenyl-N-(pyridin-2-ylmethyl)propanamide]",6.2
16,"CC(C(=O)NC1CCNCC1)(c1ccccc1)n1ncc2c1nc(N)n1nc(-c3ccco3)nc21 (centres unmarked) [Example 101, 2-(5-amino-2-(furan-2-yl)-7H-pyrazolo[4,3-e][1,2,4]triazolo[1,5-c]pyrimidin-7-yl)-2-phenyl-N-(piperidin-4-yl)propanamide]",35.1
